Biological target: T1, porcine ficolin 2 (FCN2) (Sus scrofa, UniProt Q29041)
T1 sequence (Q29041 27-323): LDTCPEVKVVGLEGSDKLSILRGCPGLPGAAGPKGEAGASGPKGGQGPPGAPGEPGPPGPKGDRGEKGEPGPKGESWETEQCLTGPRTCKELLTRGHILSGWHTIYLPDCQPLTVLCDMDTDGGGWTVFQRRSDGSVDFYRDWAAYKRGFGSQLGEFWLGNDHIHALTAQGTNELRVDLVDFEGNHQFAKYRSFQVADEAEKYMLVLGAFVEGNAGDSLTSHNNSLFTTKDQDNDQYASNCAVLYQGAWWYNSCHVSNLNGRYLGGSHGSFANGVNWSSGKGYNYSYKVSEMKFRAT
Type: biochemical
Conditions: 60% (v/v) pig serum, 37 °C, 20 min; PMOXA-coated NPs; S2 site, competitive

IC50: 67 mM
Compound: CC(=O)N[C@H]1C(O)O[C@H](CO)[C@@H](O)[C@@H]1O (stereo partly shown) [GlcNAc]

— publication PMC11920416 (Nature Communications, 2025)
